According to patent publication US8017585B2, “CXCR4 antagonist and use thereof” (priority 2002, dated 2011):
Bridge positions count the residues as written; N and C are the ends. Square brackets hold non-standard residues; d marks the D form. Peptide text beside a SMILES is read from it. * marks the point of attachment. X4 = CN(C)C(=N[C@@H](CCCNC(=N)N)C(=O)*)N(C)C; 2Nal = N[C@@H](Cc1ccc2ccccc2c1)C(=O)O; dCit = NC(=O)NCCC[C@@H](N)C(=O)O; Cit = NC(=O)NCCC[C@H](N)C(=O)O; Ahx = NCCCCCC(=O)O

Tests used:
[1] = tested on: mouse collagen-induced arthritis; test: Mouse collagen-induced arthritis; type: in vivo, DBA/1JN mouse; details: known drugs p.o. daily for 2 weeks: Indomethacin 1 mg/kg, methotrexate 3 mg/kg, FK-506 10 mg/kg
Method: FK-506 was purified by a known method (Kino T. et al., J. Antibiot., 1987 40(9): 1249-55). […] For 2 weeks after the additional immunization, body weights and hindlimb thickness were measured and arthritis scoring was made. Arthritis scores were scored at 0-3 points of each limb, and evaluated by the total of the same (12 points being the full points; 0, normal; 1, mild swelling or swelling of a single digit; 2, moderate swelling or swelling of plural digits; 3, severe swelling). Two weeks after the immunization, four limbs and sera were picked. After coat blocking bovine type II collagen (10 μg/mL PBS solution) on the immunoplate, 100 μL of 1000 times diluted mouse serum was added, and kept at room temperature for 2 hours. After cleansing, anti-mouse IgG2a antibody (1000 times dilution) was added. After cleansing, TMB was added, kept at room temperature for 30 minutes, H2SO4 of equal amount was added, and A450 nm was measured. Indomethacin (1 mg/kg), methotrexate (3 mg/kg) and FK-506 (10 mg/kg) were suspended to 0.5% methyl cellulose, and orally administered every day for 2 weeks from the day of the additional immunization at the dose of 0.1 mL/10 g body weight. 0.5% methyl cellulose solution of the equal dose was orally administered to the control group. 4Fbenzoyl-TN14003 was dissolved to PBS, and continuously administered using Alzet osmotic pumps (Alza, 0.5 μL/hr 2 weeks). The osmotic pumps were implanted intradermally to the backs of the mice under ether anesthesia on the day before the additional immunization. As the control, pumps injected with PBS were similarly implanted. Evaluation of each drug was made for the value obtained 2 weeks after the additional immunization. Data were expressed as mean value±standard margin of error (n=8-12). Comparison between 2 groups was made by Student's t-test, p≦0.05 was valued as significant. Multiple comparison was made by Dunnett test, p≦0.05 was valued as significant.

CXCR4 receptor = target: T1, CXCR4 receptor (Homo sapiens, UniProt P61073); test: Inhibition of 125I-CXCL12 binding to CXCR4 receptor on Jurkat cells; details: Table 1, 125I-CXCL12, 1 hour at room temperature, compounds as acetate salt, read-out: IC50 (nM), inhibitory activity against CXCL12 binding to CXCR4 receptor
T1 construct: 50 μL of Jurkat human T-cell leukemia cells (6×10^6 cells/mL) suspended in buffer; endogenous in cells; host or cells: Jurkat human T-cell leukemia cells
Method: After reaction, suction was made toward the reaction solution by 96 well GF/C filter plate, and each well's radioactivity was measured by top count. As the radioactivity index of 100% when the test compound was not added, and 0% when 100 nM of non-radioisotope-labeled CXCL12 was added, the inhibitory activity of each test compound was measured.

[2] = tested on: human breast cancer MDA-MB-231 cells; test: Inhibition of CXCL12-induced breast cancer cell migration (Transwell); type: cell-based; details: 10 nM of the antagonist; 100 nM CXCL12; 15 hours
Method: Transwell filter (polycarbonate filter, 8 μm diameter, Costar Company) was treated at 37° C. for 6 hours in 10 μg/mL fibronectin solution and air-dried. 100 nM of CXCL12 (R&D System Company) and 600 μL/well of buffer-A (0.1% bovine serum albumin, DMEM (GibcoBRL) containing 12 mM HEPES) containing the test compound were added to the lower chamber of the Transwell. The test compound and human breast cancer MDA-MB-231 cells (purchased from American Tissue Culture Collection), and 100 μL/well of buffer A containing 2×10^6 cells/mL were added to the upper chamber. […] Cutting off the filter part, adding 0.1 M sodium citrate/50% ethanol solution, and eluting crystal violet absorption at 550 nm was measured. […]
After 15 hours' incubation at 37° C. in 5% CO2 incubator, the upper surface of the filter was wiped and the cell was removed, and then the cell on the lower surface of the filter was fixed and stained with 25% methanol solution containing 0.5% crystal violet (Wako Pure Chemical Ind.), washed by distilled water and air-dried. Cutting off the filter part, adding 0.1 M sodium citrate/50% ethanol solution, and eluting crystal violet absorption at 550 nm was measured. […]

T1 sequence (P61073 whole entry): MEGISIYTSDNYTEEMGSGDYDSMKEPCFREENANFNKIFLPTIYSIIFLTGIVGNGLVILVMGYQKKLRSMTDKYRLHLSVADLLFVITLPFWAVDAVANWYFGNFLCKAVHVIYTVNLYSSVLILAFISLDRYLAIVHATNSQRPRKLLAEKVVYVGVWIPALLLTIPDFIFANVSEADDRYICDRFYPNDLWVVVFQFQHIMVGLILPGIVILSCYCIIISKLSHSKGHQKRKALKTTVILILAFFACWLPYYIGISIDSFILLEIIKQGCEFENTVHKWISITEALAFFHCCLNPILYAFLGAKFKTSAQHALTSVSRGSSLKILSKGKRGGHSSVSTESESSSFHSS

Structure (SMILES) | IC50 (CXCR4 receptor) [nM] | arthritis score [1] | hindlimb swelling [1] | CXCL12-induced migration of MDA-MB-231 cells [2]
COc1ccc2c(c1)c(CC(=O)O)c(C)n2C(=O)c1ccc(Cl)cc1 [Indomethacin, reference compound] |  | significant or evident inhibitory activity | significantly inhibited | 
N=C(N)NCCC[C@H](NC(=O)[C@@H]1CSSC[C@H](NC(=O)[C@H](Cc2ccc3ccccc3c2)NC(=O)[C@H](CCCNC(=N)N)NC(=O)[C@@H](N)CCCNC(=N)N)C(=O)N[C@@H](Cc2ccc(O)cc2)C(=O)N[C@@H](CCCNC(=N)N)C(=O)N[C@@H](CCCCN)C(=O)N[C@H](CCC(=O)O)C(=O)N2CCC[C@H]2C(=O)N[C@@H](Cc2ccc(O)cc2)C(=O)N[C@@H](CCCNC(=N)N)C(=O)N[C@@H](CCCNC(N)=O)C(=O)N1)C(=O)O [TE14005, H-Arg-Arg-Nal-Cys-Tyr-Arg-Lys-DGlu-Pro-Tyr-Arg-Cit-Cys-Arg-OH] (H-RR[2Nal]CYRK[dE]PYR[Cit]CR-OH; disulfide 4-13) | 2.2 |  |  | inhibited
CN(Cc1cnc2nc(N)nc(N)c2n1)c1ccc(C(=O)N[C@@H](CCC(=O)O)C(=O)O)cc1 [methotrexate, reference compound] |  | significant or evident inhibitory activity | significantly inhibited | 

Further lines, with some results ahead:

IC50 (CXCR4 receptor) [nM] | Structure (SMILES) | arthritis score [1] | hindlimb swelling [1] | CXCL12-induced migration of MDA-MB-231 cells [2]
79 | N=C(N)NCCC[C@H](NC(=O)[C@@H]1CSSC[C@H](NC(=O)[C@H](Cc2ccc3ccccc3c2)NC(=O)[C@@H](N)CCCNC(=N)N)C(=O)N[C@@H](Cc2ccc(O)cc2)C(=O)N[C@@H](CCCNC(N)=O)C(=O)N[C@@H](CCCCN)C(=O)N[C@H](CCC(=O)O)C(=O)N2CCC[C@H]2C(=O)N[C@@H](Cc2ccc(O)cc2)C(=O)N[C@@H](CCCNC(=N)N)C(=O)N[C@@H](CCCNC(N)=O)C(=O)N1)C(N)=O [TF17, H-Arg-Nal-Cys-Tyr-Cit-Lys-DGlu-Pro-Tyr-Arg-Cit-Cys-Arg-NH2] (H-R[2Nal]CY[Cit]K[dE]PYR[Cit]CR-NH2; disulfide 3-12) |  |  | 
8 | CN(C)C(=N[C@@H](CCCNC(=N)N)C(=O)N[C@@H](CCCNC(=N)N)C(=O)N[C@@H](Cc1ccc2ccccc2c1)C(=O)N[C@H]1CSSC[C@@H](C(=O)N[C@@H](CCCNC(=N)N)C(N)=O)NC(=O)[C@H](CCCNC(N)=O)NC(=O)[C@H](CCCNC(=N)N)NC(=O)[C@H](Cc2ccc(O)cc2)NC(=O)[C@@H]2CCCN2C(=O)[C@@H](CCCNC(N)=O)NC(=O)[C@H](CCCCN)NC(=O)[C@H](CCCNC(N)=O)NC(=O)[C@H](Cc2ccc(O)cc2)NC1=O)N(C)C [TF18, TMguanyl-Arg-Arg-Nal-Cys-Tyr-Cit-Lys-DCit-Pro-Tyr-Arg-Cit-Cys-Arg-NH2] (X4-R[2Nal]CY[Cit]K[dCit]PYR[Cit]CR-NH2; disulfide 3-12) |  |  | 
4.5 | N=C(N)NCCC[C@H](NC(=O)[C@@H]1CSSC[C@H](NC(=O)[C@H](Cc2ccc3ccccc3c2)NC(=O)[C@H](CCCNC(=N)N)NC(=O)[C@H](CCCNC(=N)N)NC(=O)CCCCCN)C(=O)N[C@@H](Cc2ccc(O)cc2)C(=O)N[C@@H](CCCNC(N)=O)C(=O)N[C@@H](CCCCN)C(=O)N[C@H](CCCNC(N)=O)C(=O)N2CCC[C@H]2C(=O)N[C@@H](Cc2ccc(O)cc2)C(=O)N[C@@H](CCCNC(=N)N)C(=O)N[C@@H](CCCNC(N)=O)C(=O)N1)C(N)=O [TF19, ACA-Arg-Arg-Nal-Cys-Tyr-Cit-Lys-DCit-Pro-Tyr-Arg-Cit-Cys-Arg-NH2] (H-[Ahx]RR[2Nal]CY[Cit]K[dCit]PYR[Cit]CR-NH2; disulfide 5-14) |  |  | 
